Data set [1] addresses T1, BK channels heterologously expressed in Xenopus laevis oocytes (Homo sapiens, UniProt Q12791).
T1 construct: expressed in transfected cells; host or cells: Xenopus laevis oocytes
Kind of data set: BK channel opening activity, two-electrode voltage clamp in oocytes. It is filed as cell-based. The conditions noted are these: Compound at 30 μM, step from −40 mV to +30 mV, added after a stable current level was reached, FIG. 1. The method, then:
In this example the BK channel opening activity of a 1,5-diarylsubstituted 1,2,3-triazole derivative for use according to the invention, i.e. CMPD-2 (herein designated Compound A), is determined using BK channels heterologously expressed in Xenopus laevis oocytes.
The electrical current through the BK channel is measured conventional two-electrode voltage clamp. BK current is activated by repeated step protocols. In brief, this protocol goes from a resting membrane potential of −40 mV lasting for 5 s to a depolarised step to +30 mV lasting for 1 s. The protocol was repeated continuously.
Having reached a stable current level, Compound A (30 μM), was added.
On the technique in general: In two-electrode clamp one electrode senses voltage and the other passes current.

As usually defined, the melting point is the temperature, or range, at which the solid turns liquid.

Each structure is given as a SMILES string.

T1 sequence (Q12791 whole entry): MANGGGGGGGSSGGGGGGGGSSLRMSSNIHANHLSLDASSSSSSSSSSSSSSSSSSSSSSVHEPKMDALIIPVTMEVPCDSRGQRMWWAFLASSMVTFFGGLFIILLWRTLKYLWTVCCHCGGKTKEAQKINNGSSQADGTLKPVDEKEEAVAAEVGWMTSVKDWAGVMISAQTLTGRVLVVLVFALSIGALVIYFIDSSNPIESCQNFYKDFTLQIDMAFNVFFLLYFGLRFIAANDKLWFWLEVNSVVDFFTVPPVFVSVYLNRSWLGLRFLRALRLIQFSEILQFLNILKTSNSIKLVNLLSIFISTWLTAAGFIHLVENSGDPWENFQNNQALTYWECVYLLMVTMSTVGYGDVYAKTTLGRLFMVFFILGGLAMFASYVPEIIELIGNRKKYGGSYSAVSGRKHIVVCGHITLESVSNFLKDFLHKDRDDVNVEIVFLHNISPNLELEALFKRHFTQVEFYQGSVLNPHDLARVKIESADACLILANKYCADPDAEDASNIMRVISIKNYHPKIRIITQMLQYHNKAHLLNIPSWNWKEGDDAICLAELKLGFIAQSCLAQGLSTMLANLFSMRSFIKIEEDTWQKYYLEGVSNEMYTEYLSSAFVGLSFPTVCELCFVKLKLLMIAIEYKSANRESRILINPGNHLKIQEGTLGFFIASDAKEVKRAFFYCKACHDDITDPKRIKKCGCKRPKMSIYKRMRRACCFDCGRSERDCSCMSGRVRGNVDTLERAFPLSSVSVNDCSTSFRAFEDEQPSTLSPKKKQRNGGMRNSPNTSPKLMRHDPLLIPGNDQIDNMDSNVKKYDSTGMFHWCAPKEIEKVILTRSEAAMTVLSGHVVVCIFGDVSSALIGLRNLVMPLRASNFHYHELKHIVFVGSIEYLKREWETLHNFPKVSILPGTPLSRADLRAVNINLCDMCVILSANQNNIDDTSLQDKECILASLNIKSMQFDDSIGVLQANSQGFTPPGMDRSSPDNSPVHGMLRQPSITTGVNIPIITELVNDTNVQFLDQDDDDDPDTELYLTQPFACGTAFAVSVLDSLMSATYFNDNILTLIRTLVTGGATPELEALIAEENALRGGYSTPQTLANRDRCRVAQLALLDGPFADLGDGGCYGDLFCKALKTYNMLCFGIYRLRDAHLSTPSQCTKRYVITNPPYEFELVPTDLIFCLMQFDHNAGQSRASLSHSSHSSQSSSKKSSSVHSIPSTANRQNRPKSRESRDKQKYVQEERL

In turn, `FC(F)(F)c1cccc(-c2cnnn2-c2cc(Cl)ccc2OCc2nnn[nH]2)c1` [CMPD-6, 5-{4-Chloro-2-[5-(3-trifluoromethyl-phenyl)-[1,2,3]triazol-1-yl]-phenoxymethyl}-1H-tetrazole] registered a melting point of 181.1 to 183.6 °C.
As to `FC(F)(F)c1cccc(-c2cnnn2-c2cc(Cl)ccc2-c2nnn[nH]2)c1` [CMPD-3, 5-{4-Chloro-2-[5-(3-trifluoromethyl-phenyl)-[1,2,3]triazol-1-yl]-phenyl}-1H-tetrazole], the melting point lay in the range of 230.5 to 232.1 °C.
For `FC(F)(F)c1ccc(-c2ccc(-n3nncc3-c3cc(C(F)(F)F)cc(C(F)(F)F)c3)c(-c3nnn[nH]3)c2)cc1` [Compound A, 5-{4-[5-(3,5-Bis-trifluoromethyl-phenyl)-[1,2,3]triazol-1-yl]-4′-trifluoromethyl-biphenyl-3-yl}-1H-tetrazole], the “BK current activated by depolarisation (BK channel opening activity)” value in data set [1] is reported as “marked increase”.

The values above are taken from patent US20100105689A1, “NOVEL 1,4- AND 1,5-DIARYLSUBSTITUTED 1,2,3-TRIAZOLES USEFUL AS POTASSIUM CHANNEL MODULATORS” (priority 2007, published 2010).
